This passage reports IC50 and DC50 results from ChEMBL document CHEMBL6078717, “An overview of GPX4-targeting TPDs for cancer therapy” (Bioorg Med Chem, 2025).

Data set [1] in a line: Antiproliferative activity against HEK293T cells assessed as reduction in cell growth. Format: toxicity, cell-based, HEK-293T. The following applies: human.
In another data set the test system is Calu-1. Nature of the data set: Antiproliferative activity against human Calu-1 cells assessed as inhibition of cell growth incubated for 24 hrs by MTT assay. Format: functional, cell-based. The following applies: Calu-1, 24 h.
Data set [2] can be described thus: PROTAC activity at GPX4/E3 ligase in human HT-1080 cells assessed as degradation of GPX4 protein incubated for 24 hrs by Western blotting analysis. Format: cell-based. The following applies: HT-1080, 24 h. Background: A western blot detects proteins with antibodies after separation by electrophoresis.
A further data set deals with 786-0. Nature of the data set: Antiproliferative activity against human 786-0 cells assessed as cell growth inhibition measured for 48 hrs by SRB assay. Format: functional, cell-based. The following applies: 786-0, 48 h. On the technique in general: In SRB staining, fixed cells bind dye roughly in proportion to their protein.
A further data set relates to MDA-MB-231. Nature of the data set: Antiproliferative activity against human MDA-MB-231 cells assessed as reduction in cell viability after 48 hrs by SRB assay. The following applies: MDA-MB-231, 48 h. The data set is classed as functional, cell-based.
The subject of another data set is DU-145. Nature of the data set: Antiproliferative activity against human DU-145 cells assessed as cell growth inhibition by SRB assay. The data set is classed as functional, cell-based.

The term IC50 denotes the midpoint of a concentration-inhibition curve. Take `COC(=O)c1ccc([C@H]2c3[nH]c4ccccc4c3C[C@H](C(=O)OC)N2C(=O)CCl)cc1`: in data set [1], the IC50 is 310 nM.

What is called DC50 is the midpoint of the concentration-degradation curve. As to `O=C1CCC(N2C(=O)c3cccc(NCCCCN(C(=O)CCl)C(C(=O)NCc4ccccc4)c4cccs4)c3C2=O)C(=O)N1` (centres undefined), the IC50 in the data set with Calu-1 was determined as 860 nM. Moreover, the DC50 in data set [2] was 130 nM.

For `O=C1CCC(N2C(=O)c3cccc(NCCOCCOCCOCCN(C(=O)CCl)C(C(=O)NCc4ccccc4)c4cccs4)c3C2=O)C(=O)N1` (centres undefined), the IC50 with Calu-1 turned out to be 2930 nM. The DC50 in data set [2] was found to be 210 nM.

For the compound `Cc1onc(C(=O)N2CCN(C(c3ccc(Cl)cc3)c3ccc(OCCOCCOCC(=O)NCC45CC6CC(CC(C6)C4)C5)cc3)CC2)c1[N+](=O)[O-]` (centres undefined), the results for the IC50 in the data set with 786-0, with MDA-MB-231 and in the data set on DU-145 were 125 nM, 31 nM and 92 nM, respectively. Also, in data set [2], the DC50 stood at 57 nM.
